Source: US20050238580A1 (priority 2002, published 2005)

Target: T1, intestinal lactase (Homo sapiens, UniProt P09848)
T1 construct: from tissue; host or cells: small-intestinal mucous membrane of living adult human volunteers (in vivo)
Assay: Excretion of xylose in urine of adult human volunteers after oral 4-galactosyl-xylose, colorimetric titration with fluoroglucinol
Assay type: in vivo
Procedure: The methodology consists of the oral administration of an aqueous solution of 4-galactosyl-xylose to humans after at least 8 hours of fasting. The amount of xylose present in the urine excreted is evaluated as of then, after a specific period of time. The methodology can be carried out likewise by evaluating the presence of xylose in blood evaluating it in plasma, or blood serum, prepared from a blood sample extracted after a period of time, after the intake of the disaccharide. The titration of xylose can be done by means of calorimetric analysis based on the reaction with fluoroglucinol and using as a target, either the basal urine or else the basal plasma or the basal blood serum, depending on the methodology that is used. Once the intake of 4-galactosyl-xylose has taken place, it is hydrolyzed by the intestinal lactase, in such a way that the products of this enzymatic reaction, galactose and xylose, are absorbed into the blood through the intestinal mucous membrane.
4-galactosyl-xylose is an in vivo substrate of human intestinal lactase. This has been shown in the first place by orally administering 1 g of 4-galactosyl-xylose dissolved in 50 ml of water to an adult volunteer (individual 1) who had fasted for 8 hours and with a normal tolerance to milk and milk products, in other words, with lactose tolerance. A basal urine sample was taken from this individual immediately before the intake of 4-galactosyl-xylose and urine was again collected after the intake thereof every hour for 8 hours, each sample showing the total urine excreted in each period of time. Xylose was titrated in all the samples by means of calorimetric analysis based on the reaction with fluoroglucinol and using basal urine as the target. […] The results of this experiment appear compiled in FIG. 3, where the amount of xylose evaluated in each sample is represented (white circles) and the amount of xylose that is being accumulated in urine over time is represented (black circles), calculated by adding to the amount of xylose evaluated in each sample, the amounts evaluated in all the preceding samples. In […] one can see: 1) That xylose is excreted in the urine of this individual after oral administration of 4-galactosyl-xylose; 2) That the excretion of xylose in urine was maximum after 2 hours and it was progressively accumulated in the urine after administration of this compound.
Excretion of xylose in urine by adult human volunteers with lactose tolerance varies according to the amount of the 4-galactosyl-xylose intake. This has been shown by administering 0.25 g, 0.5 g and 3 g of 4-galactosyl-xylose to an adult volunteer with lactose tolerance (individual 1, Example 4) and to an adult volunteer with lactose tolerance (individual 2, Example 5) under the same conditions as those described in Example 1 and likewise titrating xylose calorimetrically with fluoroglucinol in the urine excreted by both volunteers over time after the intake of the disaccharide. A free period of around one week was left between each intake of 4-galactosyl-xylose by the same individual. […] The results of these experiments are compiled in FIG. 4 panel A (for individual 1 and Example 4) and in FIG. 4 panel B (for individual 2 and Example 5), wherein the amount of xylose accumulated in urine after the intake of 4-galactosyl-xylose for each administered dose is represented. FIG. 4A includes the data obtained with the same individual after an intake of 1 g of the disaccharide coming from FIG. 3 so that a comparison can be made with the rest of the administered doses. In these FIGS. 4A and 4B one can see: 1) That the excretion of xylose in urine over time after the intake of 4-galactosyl-xylose increased as the amount administered to individual 1 (FIG. 4A), as well as to individual 2 (FIG. 4B) increased; That a dose of 0.25 g 4-galactosyl-xylose permitted easy detection of the presence of xylose in urine in either of these two individuals. […]

T1 sequence (P09848 869-1927): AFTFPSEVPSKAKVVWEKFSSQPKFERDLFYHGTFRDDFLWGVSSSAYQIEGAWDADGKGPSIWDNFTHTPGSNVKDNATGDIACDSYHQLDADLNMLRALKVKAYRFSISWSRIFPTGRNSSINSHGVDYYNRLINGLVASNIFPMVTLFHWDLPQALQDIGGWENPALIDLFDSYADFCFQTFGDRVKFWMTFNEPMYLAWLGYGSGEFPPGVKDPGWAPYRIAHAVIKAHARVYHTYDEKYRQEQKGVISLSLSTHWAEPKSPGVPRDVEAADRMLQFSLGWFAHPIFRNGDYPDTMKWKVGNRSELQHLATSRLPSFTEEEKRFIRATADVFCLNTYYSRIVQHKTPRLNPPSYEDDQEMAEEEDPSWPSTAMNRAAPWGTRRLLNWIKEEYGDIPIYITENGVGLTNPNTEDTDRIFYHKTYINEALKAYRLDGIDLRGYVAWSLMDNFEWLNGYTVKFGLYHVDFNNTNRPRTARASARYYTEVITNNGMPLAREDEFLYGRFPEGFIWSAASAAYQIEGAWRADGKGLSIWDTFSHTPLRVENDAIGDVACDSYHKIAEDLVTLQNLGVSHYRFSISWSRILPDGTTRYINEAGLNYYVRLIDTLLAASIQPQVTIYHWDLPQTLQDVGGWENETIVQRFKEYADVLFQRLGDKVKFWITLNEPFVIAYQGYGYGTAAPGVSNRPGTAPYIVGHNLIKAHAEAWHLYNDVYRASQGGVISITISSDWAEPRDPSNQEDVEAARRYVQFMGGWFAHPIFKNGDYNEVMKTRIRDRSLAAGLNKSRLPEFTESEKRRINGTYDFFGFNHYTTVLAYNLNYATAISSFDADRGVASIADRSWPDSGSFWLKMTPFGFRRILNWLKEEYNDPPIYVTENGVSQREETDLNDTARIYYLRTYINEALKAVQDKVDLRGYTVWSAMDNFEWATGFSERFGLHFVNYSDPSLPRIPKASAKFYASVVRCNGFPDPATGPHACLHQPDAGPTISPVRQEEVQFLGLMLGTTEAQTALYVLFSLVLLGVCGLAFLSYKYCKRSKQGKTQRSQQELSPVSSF

## OCC1O[C@@H](O[C@@H]2COC(O)C(O)[C@H]2O)C(O)[C@@H](O)[C@H]1O (some centres unmarked)
Female volunteers with lactose tolerance, 0.25 g oral
  total xylose in urine 8 hours after intake, average value: 23.5 ± 2.0 mg
Individual 5, 0.25 g oral, 8 hours
  reduction of xylose in urine versus average of tolerant females: 83%
Individual 5, person with lactose intolerance from birth, 0.25 g oral
  total xylose in urine 8 hours after intake: 4.08 mg
Individual 12, 0.25 g oral, 8 hours
  reduction of xylose in urine versus average of tolerant males: 96%
Individual 12, hypolactasic person with lactose intolerance, 0.25 g oral
  total xylose in urine 8 hours after intake: 1.33 mg
Individual 13, person with allergy to milk components, 0.25 g oral
  total xylose excreted in urine after 8 hours: the same total amount as the average of females with lactose tolerance
Individuals 1 and 2 with lactose tolerance, oral doses of 0.25 g, 0.5 g, 1 g and 3 g
  dose dependence of excretion of xylose in urine: increased with the amount
Male volunteers with lactose tolerance, 0.25 g oral
  total xylose in urine 8 hours after intake, average value: 35.7 ± 2.0 mg
